# Source: a melting point compilation (Tetko et al.; mined from patent text by program, amines drawn as free bases though some values may be those of a salt)
row,SMILES,melting point [°C]
1,O=C1Cc2ccccc2N1NCCCc1ccncc1F,114 to 116
2,O=C(Cc1ccc([N+](=O)[O-])cc1)c1c(O)c2cccnc2n(-c2ccccc2)c1=O,223 to 227
3,OC1(C2(Cl)CC2)Cc2ncnn2C(CC(Cl)(Cl)Cl)C1 (centres undefined),153 to 154
4,COc1ccc(N(C(=O)CN2C(=O)C(C)(Cc3n[nH]c4ccccc34)C(=O)N(c3cccnc3)c3ccccc32)C(C)C)cc1 (centres undefined),161 to 165
5,Nc1ccccc1CN[C@@H](CSCC(=O)O)C(=O)O,214
6,CCOCc1nc2c(N)nc3ccc(O)cc3c2n1CC(C)(C)NC(=O)C1CCCCC1,231 to 232
7,CCCCCCCCCCCCNC(=O)c1cc(-c2cccc(OC)c2)c(OCC(=O)O)c(-c2cccc(OC)c2)c1,57 to 58
8,O[C@H](COc1ccccc1C=Cc1nc2ccccc2s1)CN1CCC(c2ccc3ccccc3c2)CC1,125 to 127
9,N=c1sc2cc(OC(F)(F)F)ccc2n1CC(N)=O,228
10,O=C(NNC(=O)c1ccc(Oc2ccccc2)cc1)c1ccc(O)cc1,203 to 205
11,CCc1cccc(C)c1CNc1nc(OCCOC)cc2c1nc(C)n2C,105
12,C=CCOc1cccn2c(=O)cc(C)nc12,113 to 115
13,O=C(NCc1ccccc1OC(F)(F)F)[C@@H]1CCCN(c2cccc3c2C(=O)N(Cc2ccncc2)C3=O)C1,197 to 198
14,COc1ccc(CC2CCc3ncc(C)cc3C2=O)cc1 (centres undefined),92 to 93
15,Oc1cc(CN/C=C2\CN=Cc3ccc(Br)cc32)ccc1OC(F)F,256 to 258
16,CCn1cc(C(=O)O)c(=O)c2cc(F)c(N3CCC(N)C3)c(C)c21 (centres undefined),187 to 194
17,O=C(O)C1=CS[C@@H]2/C(=C/c3ccc4c(c3)N(Cc3ccccc3)C(=O)c3ccccc3O4)C(=O)N12,179
18,CNC(=O)c1cccc(F)c1Nc1nc(Nc2ccc3c(c2)CCCC(=O)N3CCOC)ncc1Br,191 to 193
19,CC(C)OC1COc2ccc(OCc3ccc4ccccc4n3)cc2C1=O (centres undefined),85
20,CC(C)c1nccc2c(C(C)C(=O)O)cccc12 (centres undefined),138
21,CC#CCOc1ccc(S(=O)(=O)C2(C(=O)NO)CCN(Cc3cccnc3)CC2)cc1,115
22,N#CCNC(=O)c1ccc(Cl)cc1,185
23,Cn1ncc2c1-c1c(SC(C)(C)C)sc(C(=O)O)c1CC2,277 to 278
24,O=[N+]([O-])c1ccc(CN(CCO)CCO)cc1,74 to 75
25,O=C1c2c(Cl)cccc2-n2cnc(-c3nc(CN4Cc5ccccc5C4)no3)c2[C@@H]2CCN12,170 to 175

row,SMILES,melting point [°C]
1,c1cc(OCc2ccc3ccccc3n2)cc(OCc2ccccc2-c2nnn[nH]2)c1,166 to 170
2,COc1ccc(CNc2cc(Cn3c(C(=O)c4cc(C)cc(C#N)c4)c(C(C)C)c(=O)[nH]c3=O)c(F)c(F)n2)cc1,133 to 134
3,Cc1sc(NC=O)c(C#N)c1Cl,258
4,CCOC(=O)COc1ccc(N(C)c2cc3ccc(Cl)cc3c(Cl)n2)cc1,99
5,C=CCNc1nc(Cl)c2ccn(C)c2n1,113 to 114
6,NC(=O)c1cccc2c1[nH]c1c3cc(Br)ccc3oc21,300 to 301
7,CC1(C)OC(=S)Nc2ccc(-c3ccc(F)c(Cl)c3)cc21,196 to 197
8,Cc1cccc(C(=O)Nc2ccc(-c3ccc(-c4ccccc4Cl)n3Cc3cccc(N)n3)cc2)c1,108 to 118
9,COc1ccc(C=C2c3ccccc3C(=NOCC(=O)NCC(C)(C)SN=O)c3ccccc32)cc1O,143 to 145
10,CC1CCOCc2nc3c(N)nc4cc(Br)ccc4c3n21 (centres undefined),247 to 248
11,O=C(Oc1cccc2c(C(=O)c3ccc(F)cc3)c(-c3ccc(OCCN4CCCC4)cc3)sc12)c1ccc(F)cc1,64 to 68
12,CCOC(=O)c1ccc(Nc2c(NCc3ccccc3)cc(C(=O)OCC)cc2S(N)(=O)=O)cc1,161
13,N#Cc1cnc2sc(Br)cc2c1Cl,158 to 166
14,C#CCOc1ccc(CCNC(=O)C(O)Cc2ccc(C)cc2)cc1OC (centres undefined),85
15,CCCCCCCCCCCCCCCCCC(=O)Nc1cccc(N)c1,98 to 102
16,CCN1C(=O)C(C)(C(=O)O)Oc2ccccc21 (centres undefined),164 to 168
17,Cc1ccc2c3c(c(=O)[nH]c2c1)C(=O)c1ccccc1-3,> 290
18,CCC=CCn1c(=O)sc2c(=O)n(C)c(N)nc21,184 to 187
19,COc1cc2c(cc1C(F)(F)F)N(C(=O)Nc1ccc(F)c(-c3cccnc3)c1)CC2,210 to 212
20,COc1cc(OCc2ccccn2)ccc1/C=C/c1cc(/C=C/c2ccc3ccn(C(C)=O)c3c2)n[nH]1,182 to 187
21,C[Si](C)(C)c1[nH]c2ccccc2c1C1CC1,78 to 81
22,Cc1[nH]c2cccc3c2c1CC1C3=CC(C(=O)NN)CN1C (centres undefined),235 to 240
23,Cn1ccnc1C1(CCCCc2ccc(N3C(=O)c4ccccc4C3=O)cc2)c2ccccc2-c2ccccc21,76 to 80
24,Cc1ccc2c3[nH]nc(Cc4ccccc4)c3c(=O)n(-c3ccccc3)c2n1,300 to 302
25,O=C(Nc1cccnc1)N1CCN(c2cncc(-c3ccc(F)cc3F)n2)CC1,155 to 156

row,SMILES,melting point [°C]
1,CCn1ncc2c(NCc3ccc(OC)cc3)c3ccccc3nc21,179 to 180
2,CC(CCl)N1C(=O)N(c2ccc(Cl)cc2)CC1C (centres undefined),70 to 72
3,Cc1oc(-c2ccccc2)nc1CCC(=O)c1ccc(CCC2OC(=O)NC2=O)cc1 (centres undefined),173 to 174
4,O=C(NCCC1CCCCC1)NCCC1CCCCC1,150 to 152
5,CC(Oc1ncn(-c2cccc(Cl)c2)n1)C(=O)O (centres undefined),197 to 199
6,FC(F)(F)c1n[nH]c2c1nc(-c1ccccc1)c1ccccc12,264 to 265
7,COc1ccc(C2=C(CC(C)N)C(=O)NCCC2)cc1 (centres undefined),131 to 133
8,COc1ccc(Nc2nc(-c3ccncc3)nc3ccccc23)cc1Cl,> 220
9,O=C(Cc1ccccc1)Nc1ccc2oc3c(c2c1)CCCC3,180 to 181
10,CCCOc1cc2c(cc1-c1cc(-c3ccc(C(=O)O)cc3)ccc1-c1ccccc1)C(C)(C)CCC2(C)C,234
11,N#Cc1cc(C(=O)N2CCC[C@H](c3nc(-c4ccc(F)cc4)no3)C2)ccc1F,144 to 146
12,CNC(=O)C(C)(C)n1cc(C)c(-c2ccccc2Cl)n1,87 to 90.5
13,CC(C)Cc1cc(OCc2ccccc2)c2c(c1)OC(C)(C)CC2=O,77.5 to 78
14,CS(=O)(=O)c1nc2cnc3cccnc3c2n1Cc1ccccc1,187 to 191
15,Cc1cn(C2CC(C#N)C(COC(c3ccccc3)(c3ccccc3)c3ccccc3)O2)c(=O)[nH]c1=O (centres undefined),153 to 157
16,Cc1cc(Oc2ncc(C(F)(F)F)cc2Cl)nn1C(=O)Nc1ccccc1,116 to 118
17,CC(C)OC(=O)N1CCC(c2nc3cc(-c4ccc(C(N)=O)cc4Cl)ccc3o2)CC1,178 to 182
18,CC1(C)CC(=O)Nc2c(CCN3CCN(c4nsc5ccc(F)cc45)CC3)cc(F)cc21,191
19,O=[N+]([O-])c1ccc(OCc2ccc(F)cc2)cc1,124 to 126
20,Cc1ccc(C2c3c(C)c(N4CCN(c5ccccc5[N+](=O)[O-])CC4)c(C)c(C)c3OC2(C)C)cc1 (centres undefined),178 to 180
21,CCOC(Cc1ccc(OCc2nc(C3CC3)oc2C)c2ccsc12)C(=O)O (centres undefined),153 to 154
22,O=C1CCN2C(=O)OCc3cccc1c32,130 to 131
23,CC(C)(C)c1ccc2c(c1)C(CO)c1cc(C(C)(C)C)ccc1S2,158 to 159
24,Cc1cccc(CC(=O)O)c1OCCCc1cn(-c2ccc(C(F)(F)F)cn2)nc1C(C)(C)C,86 to 87
25,Nc1nc(Cc2ccccc2)no1,142 to 145

row,SMILES,melting point [°C]
1,COc1cn(-c2ccc(-n3cccn3)cc2F)nc(-c2ccnn2-c2ccccc2)c1=O,214 to 216
2,CC(O)CCNc1cc(C(=O)O)cc(S(N)(=O)=O)c1Oc1ccccc1 (centres undefined),245 to 247
3,CS(=O)(=O)Nc1cc2occ(C(=O)O)c(=O)c2cc1Oc1ccccc1,> 250
4,COc1ccc(/C=C(\C#N)c2ccc(Cl)cc2Cl)cc1OC1CCCC1,105 to 107
5,O=C(O)Cc1cccc(Oc2ccccc2Cl)c1O,103 to 105
6,CCCn1c(COCC)nc2c(N)nc3ccc(OCc4cccnc4)cc3c21,190 to 191
7,CCOc1cccc(-n2cc(-c3ccc4c(c3)OCO4)c3c(N)ncnc32)c1,153 to 155
8,COC(=O)Cc1csc(NS(=O)(=O)c2cccc(Cl)c2C)n1,187
9,CCc1nn(C2CCCC2)c2cc(C3=NOC(C)(c4noc(-c5cc(OC)cc(OC)c5)n4)C3)ccc12 (centres undefined),154 to 155
10,CCC1C=CCCC1C(O)C(N)=O (centres undefined),156 to 158
11,CCC1(OC)CCc2c(C)c(O)c(C)c(C)c2O1 (centres undefined),96.5 to 98.5
12,CC12CCC(=O)C=C1CCC1C2CCC2(C)C(n3ccnc3)=CCC12 (centres undefined),147 to 150
13,Nc1cc(C(=O)O)cc(NCc2ccccc2)c1-c1ccccc1,179 to 181
14,CC1CCc2c(N3CCCCC3)c(Cl)cc3c(=O)c(C(=O)O)cn1c23 (centres undefined),246 to 248
15,CCOC(=O)C1(I)C=CC(c2ccccc2)=CC1 (centres undefined),105 to 106
16,CCOCc1nc2c(N)nc3ccccc3c2n1CCCCC(N)=O,198 to 200
17,COc1cc2oc(-c3ccc(F)cc3)c(Br)c2c(OC)c1Br,186 to 187
18,O=C(CBr)CCc1ccccc1,39 to 40
19,CCCCCCCCCCCCCCCCCCCCOC(=O)Cl,33 to 34
20,CCC1(c2ccc(=O)[nH]n2)CCCCC1,138 to 140
21,CC(=O)c1sccc1CN1C(=O)C(NC(=O)Nc2cccc(C)c2)N=C(c2ccccc2F)c2ccccc21 (racemic),222 to 223
22,CC(=O)Nc1cccc2c1Cc1ccccc1C2=O,266
23,CCCN1CCC(=O)C2=C1CSc1ccc(OC)cc12,108 to 110
24,CCSC1=N[C@@H](c2ccc(OC)cc2)[C@@H](c2ccc(OC)cc2)N1,92 to 93
